Results on 1 molecule are retold here after paper PMC7473324, “Histo-blood group antigens as divergent factors of groups A and C rotaviruses circulating in humans and different animal species” (Emerging Microbes & Infections, 2020).

The target in this assay is T1, GST-VP8* of P[16] murine RVA EMcN (Murine rotavirus EMcN, UniProt Q6WVQ1).
T1 construct: gene VP4; VP8* core aa 46-231, cut from VP4 precursor; N-terminal GST fusion kept; E. coli BL21
The assay is described as follows: CFG glycan array, GST-VP8* detected with fluorescent anti-GST antibody (RFU). The settings on record: immobilised glycan. It is filed as binding.

With `OC[C@H]1O[C@H](O[C@H]2[C@@H](O)[C@@H](CO)O[C@@H](O[C@H]3[C@H](O)[C@@H](O)C(O)O[C@@H]3CO)[C@@H]2O)[C@H](O)[C@@H](O)[C@H]1O` (stereo partly shown) [compound 117, Galα1-3Galβ1-4Glc], the “CFG glycan array, GST-VP8* detected with fluorescent anti-GST antibody (RFU)” value was “Four strains exhibited strongest binding signals to the αGal containing glycans”.
